In US20250213546A1, “TREATING CANCER WITH SMALL MOLECULES THAT INHIBIT ACSS-2” (DREXEL UNIVERSITY, priority 2022, published 2025):
Where two headings read alike, the source gives them in different places.

Tests used:
Human plasma stability = type: in vitro ADME; details: both sexes, 37° C., up to 120 min, read-out: Human Plasma Stability T1/2
Description: (§1) Metabolic Stability and Plasma Stability. Test compound Working solution: 5 μL of compound stock solution (10 mM in dimethyl sulfoxide (DMSO)) were diluted with 495 μL of DMSO (Working solution concentration: 100 μM, 100% DMSO). Propantheline bromide Working solution: 5 μL of Propantheline bromide stock solution (10 mM in H2O) were diluted with 495 μL of H2O (Working solution concentration: 100 μM, 100% H2O)
Human plasma from 3 males and 3 females was obtained. Heparin was used as the anticoagulant. The pooled frozen plasma was thawed in a water bath at 37° C. prior to experiment. Plasma was centrifuged at 4000 rpm for 5 min and the clots were removed if any. Using an Apricot automation workstation, 98 μL/well of blank plasma were added to all 96-well reaction plates. (Blank, T0, T10, T30, T60 and T120). The appointed incubation time points are T0 (0 min), Tn (n=0, 10, 30, 60, 120 min). An Apricot automation workstation was used to add 2 μL/well of working solution (100 μM) to all reaction plates except Blank. (T0, T10, T30, T60 and T120). All reaction plates containing mixtures of compound and plasma were incubated at 37° C. in water bath. The reaction plates were incubated at 37° C., and timer was started. At the end of incubation, 500 μL of stop solution was added and mixed (200 ng/mL tolbutamide and 200 ng/ml labetalol in ACN) to precipitate protein. Each plate was sealed and shaken for 20 minutes. After shaking, each plate was centrifuged at 4000 rpm and 4° C. for 20 minutes. After centrifugation, an Apricot automation workstation was used to transfer 150 μL of supernatant from each reaction plate to its corresponding bioanaylsis plate. Each bioanalysis plate was sealed and shaken for 10 minutes prior to LC-MS/MS analysis. The % remaining of test compound after incubation in plasma was calculated using following equation: Remaining=100×(PAR at appointed incubation time/PAR at T0 time) where PAR is the peak area ratio of analyte versus internal standard (IS).

MDR1-MDCK I cells = assay: in vitro; details: dog, MDCK-MDR1, 1.5 h, 2 µM, pH 7.4
Description: (§2) MDCKI MDR1 cell permeability assessment was performed to mimic the blood brain barrier. MDR1-MDCK I cells were seeded onto […] (PET) in 96-well Corning insert systems at 2.5×10^5 cells/mL until to 4-7 days for confluent cell monolayer formation. The transport buffer in the study was HBSS with 10.0 mM HEPES at pH 7.40+0.05. Test compounds were tested at 2.00 μM bi-directionally in duplicate. […] Final DMSO concentration was adjusted to less than 1%. The plate was incubated for 1.5 hours in CO2 incubator at 37±1° C., with 5% CO2 at saturated humidity without shaking. All samples after mixed with acetonitrile containing internal standard were centrifuged at 3220×g for 10 min. For all samples, 150 μL supernatant solution was diluted with 150 μL ultra-pure water for LC-MS/MS analysis. In addition, the efflux ratio of each compound was also determined. Test and reference compounds were quantified by LC-MS/MS analysis based on the peak area ratio of analyte/IS. After transport assay, Lucifer yellow rejection assay are applied to determine the cell monolayer integrity. Buffers are removed from both apical and basolateral chambers, followed by the addition of 75 μL of 100 μM lucifer yellow in transport buffer and 250 μL transport buffer in apical and basolateral chambers, respectively. […] After 30 minutes incubation, 20 μL of lucifer yellow samples are taken from the apical sides, followed by the addition of 60 μL of Transport Buffer. And then 80 μL of lucifer yellow samples are taken from the basolateral sides.
(§3) The apparent permeability coefficient Papp (cm/s) was calculated using the equation: Papp=(dCr/dt)×Vr/(A×C0) where dCr/dt is the cumulative concentration of compound in the receiver chamber as a function of time (μM/s); Vr is the solution volume in the receiver chamber (0.075 mL on the apical side, 0.25 mL on the basolateral side); A is the surface area for the transport, i.e. 0.0804 cm^2 for the area of the monolayer; CO is the initial concentration in the donor chamber (μM). […] Percent of lucifer yellow in basolateral well is calculated using the equation: Where RFUApical and RFUBasolateral are the relative fluorescence unit values of lucifer yellow in the apical and basolateral wells, respectively; VApical and VBasolateral are the volume of apical and basolateral wells (0.075 mL and 0.25 mL), respectively. The % Lucifer Yellow should be less than 1.0.

MDR1 = assay: in vitro; details: dog
Description: as §2, §3

[1] = Human liver microsome stability; type: in vitro ADME; details: 60 min, given as fraction
Description: as §1

hACSS-2 = hACSS-2 (Homo sapiens (Human), UniProt Q9NR19); assay: Surface plasmon resonance (SPR) binding to immobilized hACSS-2
Chain of hACSS-2 (Q9NR19 whole entry): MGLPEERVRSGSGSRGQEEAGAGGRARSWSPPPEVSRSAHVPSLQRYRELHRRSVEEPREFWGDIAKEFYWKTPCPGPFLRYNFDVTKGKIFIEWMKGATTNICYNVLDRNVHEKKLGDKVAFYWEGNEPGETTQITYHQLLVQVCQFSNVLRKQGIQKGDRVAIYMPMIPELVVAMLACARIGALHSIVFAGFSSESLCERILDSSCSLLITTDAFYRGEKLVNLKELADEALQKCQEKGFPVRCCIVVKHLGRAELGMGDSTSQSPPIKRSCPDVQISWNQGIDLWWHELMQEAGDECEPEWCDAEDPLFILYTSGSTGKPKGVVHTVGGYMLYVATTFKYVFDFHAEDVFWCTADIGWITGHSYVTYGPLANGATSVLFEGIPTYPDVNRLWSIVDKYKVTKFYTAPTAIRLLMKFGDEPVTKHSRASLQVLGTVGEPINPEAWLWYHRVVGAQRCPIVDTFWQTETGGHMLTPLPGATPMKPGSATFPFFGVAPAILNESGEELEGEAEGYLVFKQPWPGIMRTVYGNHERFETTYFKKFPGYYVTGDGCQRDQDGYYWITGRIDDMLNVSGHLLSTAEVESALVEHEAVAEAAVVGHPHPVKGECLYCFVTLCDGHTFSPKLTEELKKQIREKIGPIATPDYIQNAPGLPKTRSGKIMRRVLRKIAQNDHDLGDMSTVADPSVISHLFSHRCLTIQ
Description: SPR characterization. All binding assays were performed on a ProteOn XPR36 SPR Protein Interaction Array System (Bio-Rad Laboratories, Hercules, CA, USA). The instrument temperature was set at 25° C. for all kinetic analyses. ProteOn GLH sensor chips were preconditioned with two short pulses each (10 s) of 50 mM NaOH, 100 mM HCl, and 0.5% sodium dodecyl […]. Then the system was equilibrated with running buffer (1×PBS pH 7.4, 3% DMSO and 0.005% polysorbate 20). The surface of a GLH sensor chip was activated with a 1:100 dilution of a 1:1 mixture of 1-ethyl-3-(3-dimethylaminopropyl) carbodiimide hydrochloride (0.2 M) and sulfo-N-hydroxysuccinimide (0.05 M). […] Then, after unreacted protein had been washed out, excess active ester groups on the sensor surface were capped by a 5 min injection of 1M ethanolamine HCl (pH 8.0) at a flow rate of 5 μL/min. A reference surface was similarly created by immobilizing a nonspecific protein (IgG b12 anti-HIV-1 gp120; was obtained through the NIH AIDS Reagent Program, Division of AIDS, NIAID, NIH: Anti-HIV-1 gp120 Monoclonal (IgG1 b12) from Dr. Dennis Burton and Carlos Barbas) and was used as a background to correct nonspecific binding. Serial dilutions of hACSS-2 inhibitors were then prepared in the running buffer and injected at a flow rate of 100 μL/min, for a 50 s association phase, followed by up to a 5 min dissociation phase using the “one-shot kinetics” capability of the ProteOn instrument. Data were analyzed using the ProteOn Manager Software version 3.0 (Bio-Rad). The responses from the reference flow cell were subtracted to account for the nonspecific binding and injection artifacts. Experimental data were fitted to a simple 1:1 binding model. Experiments were performed in triplicate to detect kinetic and equilibrium dissociation constants (KD).
Overproduction of hACSS-2 was achieved using a prokaryotic expression system. […] The bacterial expressions were then spun down, the supernatant discarded, and the pellets resuspended. After the cells were lysed via sonication, the sample was subjected to ultracentrifugation, and the clarified lysate was applied to a Talon cobalt resin affinity column (Clonetech Laboratories, Mountain View, CA). The bound protein was eluted from the column using 1×PBS pH 7.4 with 0.3 M imidazole, then dialyzed overnight into 20 mM Tris-HCl pH 8.0, concentrated to 10 mg/mL, aliquoted, and stored at −80° C.

N[C@H](C(=O)N1CCCC(c2ccccc2)(c2ccccc2)C1)C1CC1 [AD-8007]
half-life at 2 µM (Human plasma stability): > 4.82 h | Note (efflux / BBB assessment) (MDR1-MDCK I cells): AD 8007 has a low efflux ratio | efflux ratio at 1.5 h, 2 µM (MDR1; MDCK-MDR1, pH 7.4): 8.96 | recovery at 1.5 h, 2 μM (MDR1; MDCK-MDR1, pH 7.4, Mean % Solution Recovery A to B): 81.3% | recovery at 1.5 h, 2 μM (MDR1; MDCK-MDR1, pH 7.4, Mean % Solution Recovery B to A): 97% | Human Liver Microsome Stability Remaining(T = 60 min) [1]: 0.7723 | Human Liver Microsome Stability Remaining(NCF = 60 min) ([1]; NCF): 0.9563 | koff (hACSS-2; 1:1 binding model, mean, n = 3): 0.547 s⁻¹ | kon (hACSS-2; 1:1 binding model, mean, n = 3): 4790 M⁻¹ s⁻¹ | Kd (hACSS-2; Langmuir isotherm equilibrium fit, mean, n = 3, read-out: KD [μM] equilibrium): 117 µM | Kd (hACSS-2; global fit, mean, n = 3, read-out: KD [μM] kinetic/global): 149 µM | Kd (hACSS-2; read-out: Affinity (KD in μM) for hACSS-2 mean ± SD (n = 3), SPR, one site binding model isotherm, triplicate): 89 ± 20 µM
